Measured values as given in US11707440B2 (priority 2017, dated 2023).
Several values for one entry are separate records, joined by “and”; a condition that tells them apart may be missing. Identical values can stand only once. Entries after “also recorded” stand apart in the source; their conditions may differ. Like-named read-outs stand apart in the source and are kept apart here. Marks after values point to notes of the source that are not given here.

What was measured:
[1] = for Stock solution stability: stock solutions
Description: This example provides an LC-MS/MS method for the determination of ketamine and norketamine in sodium heparin human plasma using ketamine-d4 and norketamine-d4 as the respective internal standards (IS).

[2] = system: adult female Sprague Dawley rats, PCG/RSC; conditions: 3 hours after a single intraperitoneal injection (Jevtovic-Todorovic 2000); cited from earlier work
[3] = system: female Sprague-Dawley rats, PCG/RSC of the brain; assay: Single dose neurotoxicity study, intranasal instillation; conditions: for Clinical observation: Abnormal respiration / Clinical observation: Ataxia / Clinical observation: Catalepsy / Clinical observation: Chromodacryorrhea / Clinical observation: Decreased general activity / Clinical observation: Decubitus / Clinical observation: Increased general activity / Clinical observation: Narrowed palpebral fissure / Clinical observation: Piloerection / Clinical observation: Salivation (out of normal) / Clinical observation: audible respiration / Clinical observation: bradypnoea: single dose intranasal
Protocol: Esketamine HCl was instilled intranasally at doses of 0 (vehicle), 36, 54 or 72 mg (expressed as esketamine base) to female rats on a single day. The dose levels were obtained by 2, 3 or 4 subsequent intranasal instillations, respectively, into both nostrils at a volume of 50 μL per nostril. At each instillation, the second nostril was dosed immediately after the first nostril. The interval between subsequent instillations into both nostrils was 5 minutes.
The vehicle control group received 4 subsequent intranasal instillations of the vehicle into both nostrils (50 μL per nostril) with 5-minute intervals.
The injection volume was 5 mL/kg.
The vehicle- and the 36 and 54 mg-dosed groups consisted of 24 animals per group, while the 72 mg-dosed and positive control groups involved 30 animals per group. Four satellite animals were added to the esketamine HCl-dosed groups of main study animals for toxicokinetic (TK) purposes. In these animals the plasma exposure to esketamine was measured on the day of dosing at various time points up to and including 24 hours after the first instillation.
Prior to the perfusion, rats were anesthetized with isoflurane. After injection of 0.1 ml heparin, the blood of the rat was flushed out with a physiological saline solution by intraarterial insertion of a needle in the abdominal aorta. Thereafter the rat was perfused with glutaraldehyde 3% in potassium phosphate 0.09M and 1.4% sucrose. Due to logistic constraints at maximum 30 animals could undergo the whole-body perfusion procedure on a given day. Therefore, a staggered start of treatment was applied to all 5 groups of main study animals. Consequently, subgroups of 4 main study animals of the vehicle- and 36 and 54 mg-dosed groups, and 5 main study animals of the 72 mg-dosed and positive control groups, were dosed on 6 consecutive days, respectively.
The vehicle control, positive control, and esketamine HCl-dosed animals were sacrificed at either 48 hours (i.e., the first 12 or 15 rats per group) or 96 hours after the dose administration time (i.e., the last 12 or 15 rats per group). The brain tissue of the vehicle control-, positive control- and esketamine HCl-treated rats were processed at the same time and handled in the same way in batches of 4 or 5 animals per group.
(§1) Furthermore, clinical observations were recorded for the esketamine HCl-dosed rats on the day of dosing at 0 till 5 minutes, 15 and 30 minutes, and at 1, 2, 4, 6 hours post-dose, at the end of the working day and at 24 hours after the last instillation in the single dose study and on the first day of dosing, after one week and towards the end of the dosing period in the repeated dose study. Body weight and body weight gain were measured daily. Food consumption was measured weekly in the repeated dose study.
(§2) On the day of terminal kill, a complete physical examination was performed on the rats in fasted condition and body weight was recorded. The surviving animals were anaesthetized by inhalation of an isoflurane (IsoFlo® Zoetis, Belgium)/oxygen mixture and killed by exsanguination via the carotid artery. […] All terminally killed rats or those killed pre-terminally were perfused with 4% paraformaldehyde in the single dose study and with glutaraldehyde 3% in potassium phosphate buffer 0.09 M with 1.4% sucrose in the repeated dose study.
(§3) Brain tissue was sampled and processed routinely. The trimmed and embedded tissue was sectioned and stained with hematoxylin-eosin (HE). Histoprocessing and staining were carried out in three batches of 4 animals per group (each batch thus containing 4 animals from vehicle control-, positive control- and the three esketamine HCl-treated groups). In the single dose study duplicate brain sections were stained with Fluoro-Jade (FJ).
All tissues showing gross abnormalities were examined macroscopically.

[4] = system: female Sprague-Dawley rats, PCG/RSC of the brain; assay: 14-day repeated dose neurotoxicity study, intranasal instillation; conditions: for Clinical observation: Abnormal respiration / Clinical observation: Ataxia / Clinical observation: Chromodacryorrhea / Clinical observation: Decreased general activity / Clinical observation: Decubitus / Clinical observation: Increased general activity / Clinical observation: Salivation (out of normal) / Clinical observation: audible respiration / Clinical observation: bradypnoea: 14 days
Protocol: Esketamine HCl was administered into each nostril of female rats at a volume of 50 μl per nostril either once, twice or thrice daily by intranasal instillation for 14 consecutive days at doses of 0 (vehicle), 18, 36 or 54 mg/day. At each instillation, the second nostril was dosed immediately after the first nostril. The interval between subsequent instillations into both nostrils was 5 minutes when dosed 2 or 3 times per day.
The vehicle control group received 3 subsequent intranasal instillations of the vehicle into both nostrils (50 μL per nostril) with 5-minute intervals for 14 consecutive days.
The positive control group received a single subcutaneous injection of (+)MK-801 at 48 hours prior to the necropsy of the vehicle control and esketamine HCl-treated animals.
Each group of main study animals consisted of 12 female rats. Four satellite animals were added to the esketamine HCl-dosed groups of main study animals for TK purposes. The plasma exposure to esketamine was measured in these animals on the first and the last day of dosing at various time points up to and including 24 hours after the first instillation.
Due to logistic constraints associated with the whole body perfusion procedure of the animals at necropsy, a staggered start was applied to the study. Consequently, all 5 groups of main study animals were divided into three subgroups of 4 animals each. For each of these subgroups treatment started on a different day. The perfusion procedure is the is the same as described for the single dose study.
All vehicle- and esketamine HCl-treated animals were sacrificed at 48 hours after the last instillation. […] The brain tissue of the vehicle control-, positive control- and esketamine HCl-treated rats were processed at the same time and handled in the same way in batches of 4 animals per group.
as §1, §2, §3
All tissues showing gross abnormalities were examined […]. Histopathological examination was performed on 7 levels of brain tissue according to Bolon (2013. Toxicol. Pathol. 41(7), 1028-1048) from the vehicle control-, positive control-, and high dose esketamine HCl-treated groups in the single dose study, and in all groups in the repeated dose study.

[5] = Maximum solubility of esketamine HCl; conditions: room temperature, pH 4.5; factor 1.15
Protocol: The clinical investigational product is an aqueous solution of the drug substance, esketamine hydrochloride (HCl). This formulation is administered intranasally to patients using a dual nasal spray device, which delivers one spray into each nostril. […] The formulation was stored at 37° C. for stability reasons until dosing.

[6] = system: NMDA receptor; conditions: cited from earlier work

Molecule: CNC1(c2ccccc2Cl)CCCCC1=O (racemic) [ketamine, reference compound]
- QC sample freeze/thaw stability ([1]; freeze (−20° C.)/thaw (ice-water bath)): 3 freeze (−20° C.)/thaw (ice-water bath) cycles
- QC sample freeze/thaw stability ([1]; freeze (−20° C.)/thaw (room temperature)): 3 freeze (−20° C.)/thaw (room temperature) cycles
- QC sample bench-top stability ([1]; human plasma, room temperature): 68.5 hours at room temp
- QC sample long-term storage stability ([1]; human plasma, −20° C.): 1552 days at −20 °C
- Processed sample stability ([1]; room temperature): 146.5 hours at room temperature
- Whole Blood Stability ([1]; room temperature and ice-water bath (0-4° C.)): 120 minutes at room temperature and in an ice-water bath
- Stock solution stability (spike solutions) ([1]; spike solutions, −20° C.): 610 days at −20 °C for ketamine/norketamine spike solutions
- Stock solution stability ([1]; room temperature under white light): 6 h
- Stock solution stability ([1]; −20° C.): 15100 h
- ED50-value for the induction of neuronal vacuolation in the PCG/RSC [2]: 47.5 mg/kg body weight

Molecule: CN[C@]1(c2ccccc2Cl)CCCCC1=O.Cl [esketamine HCl, (S)-2-(2-chlorophenyl)-2-(methylamino)cyclohexanone hydrochloride]
- Duration of severely decreased activity with decubitus, bradypnea, ptosis and catalepsy (anesthesia) ([3]; 36 mg): 15 to 30 min
- Clinical observation: Abnormal respiration ([3]; 36 mg): 22/24***
- Clinical observation: Ataxia ([3]; 36 mg): 24/24***
- Clinical observation: Catalepsy ([3]; 36 mg): 20/24***
- Clinical observation: Chromodacryorrhea ([3]; 36 mg): 0/24
- Clinical observation: Decreased general activity ([3]; 36 mg): 23/24***
- Clinical observation: Decubitus ([3]; 36 mg): 23/24***
- Clinical observation: Increased general activity ([3]; 36 mg): 24/24***
- Clinical observation: Narrowed palpebral fissure ([3]; 36 mg): 7/24**
- Clinical observation: Piloerection ([3]; 36 mg): 0/24
- Clinical observation: Salivation (out of normal) ([3]; 36 mg): 23/24***
- Clinical observation: audible respiration ([3]; 36 mg): 10/24***
- Clinical observation: bradypnoea ([3]; 36 mg): 22/24***
- Clinical observation: Abnormal respiration ([3]; 54 mg): 22/24***
- Clinical observation: Ataxia ([3]; 54 mg): 24/24***
- Clinical observation: Catalepsy ([3]; 54 mg): 23/24***
- Clinical observation: Chromodacryorrhea ([3]; 54 mg): 0/24
- Clinical observation: Decreased general activity ([3]; 54 mg): 23/24***
- Clinical observation: Decubitus ([3]; 54 mg): 23/24***
- Clinical observation: Increased general activity ([3]; 54 mg): 24/24***
- Clinical observation: Narrowed palpebral fissure ([3]; 54 mg): 10/24***
- Clinical observation: Piloerection ([3]; 54 mg): 0/24
- Clinical observation: Salivation (out of normal) ([3]; 54 mg): 24/24***
- Clinical observation: audible respiration ([3]; 54 mg): 3/24
- Clinical observation: bradypnoea ([3]; 54 mg): 21/24***
- Duration of ataxia (and hyperactivity) after the decrease in activity subsided ([3]; 54 mg, hydrochloride): 1.5 to 3 h and 1 to 3 h
- Duration of severely decreased activity with decubitus, bradypnea, ptosis and catalepsy (anesthesia) ([3]; 54 mg, hydrochloride): 30 minutes to one hour and 30 minutes to an hour
- Duration of ataxia (and hyperactivity) after the decrease in activity subsided ([3]; 72 mg): up to 3 hours or longer
- Clinical observation: Abnormal respiration ([3]; 72 mg): 30/30***
- Clinical observation: Catalepsy ([3]; 72 mg): 30/30***
- Clinical observation: Chromodacryorrhea ([3]; 72 mg): 0/30
- Clinical observation: Decreased general activity ([3]; 72 mg): 30/30***
- Clinical observation: Decubitus ([3]; 72 mg): 30/30***
- Clinical observation: Increased general activity ([3]; 72 mg): 29/30***
- Clinical observation: Narrowed palpebral fissure ([3]; 72 mg): 22/30***
- Clinical observation: Piloerection ([3]; 72 mg): 0/30
- Clinical observation: Salivation (out of normal) ([3]; 72 mg): 29/30***
- Clinical observation: audible respiration ([3]; 72 mg): 2/30
- Clinical observation: bradypnoea ([3]; 72 mg): 30/30***
- Mortality ([3]; single dose 72 mg, within 30 minutes after 4 instillations): two main study animals and two satellite TK animals died
- Mortality ([3]; single dose up to 54 mg): No test article related mortality
- Brain histopathology (neuronal necrosis, Olney lesions) ([3]; single dose up to 72 mg, 48 and 96 hours post-dose, hydrochloride): no morphological evidence of neuronal degeneration; also recorded: histopathological lesions were absent; also recorded: No signs of neuronal necrosis; also recorded: no neuropathological lesions were observed
- Clinical observation: Abnormal respiration ([4]; 18 mg/day intranasal): 2/12
- Clinical observation: Ataxia ([4]; 18 mg/day intranasal): 12/12***
- Clinical observation: Chromodacryorrhea ([4]; 18 mg/day intranasal): 0/12
- Clinical observation: Decreased general activity ([4]; 18 mg/day intranasal): 5/12
- Clinical observation: Decubitus ([4]; 18 mg/day intranasal): 0/12
- Clinical observation: Increased general activity ([4]; 18 mg/day intranasal): 12/12***
- Clinical observation: Salivation (out of normal) ([4]; 18 mg/day intranasal): 12/12***
- Clinical observation: audible respiration ([4]; 18 mg/day intranasal): 2/12
- Clinical observation: bradypnoea ([4]; 18 mg/day intranasal): 0/12
- Clinical observation: Abnormal respiration ([4]; 36 mg/day intranasal): 11/12***
- Clinical observation: Ataxia ([4]; 36 mg/day intranasal): 12/12***
- Clinical observation: Chromodacryorrhea ([4]; 36 mg/day intranasal): 0/12
- Clinical observation: Decreased general activity ([4]; 36 mg/day intranasal): 12/12***
- Clinical observation: Decubitus ([4]; 36 mg/day intranasal): 2/12
- Clinical observation: Increased general activity ([4]; 36 mg/day intranasal): 12/12***
- Clinical observation: Salivation (out of normal) ([4]; 36 mg/day intranasal): 12/12***
- Clinical observation: audible respiration ([4]; 36 mg/day intranasal): 6/12**
- Clinical observation: bradypnoea ([4]; 36 mg/day intranasal): 11/12***
- Clinical observation: Abnormal respiration ([4]; 54 mg/day intranasal): 12/12***
- Clinical observation: Ataxia ([4]; 54 mg/day intranasal): 12/12***
- Clinical observation: Chromodacryorrhea ([4]; 54 mg/day intranasal): 0/12
- Clinical observation: Decreased general activity ([4]; 54 mg/day intranasal): 12/12***
- Clinical observation: Decubitus ([4]; 54 mg/day intranasal): 8/12***
- Clinical observation: Increased general activity ([4]; 54 mg/day intranasal): 12/12***
- Clinical observation: Salivation (out of normal) ([4]; 54 mg/day intranasal): 12/12***
- Clinical observation: audible respiration ([4]; 54 mg/day intranasal): 6/12**
- Clinical observation: bradypnoea ([4]; 54 mg/day intranasal): 12/12***
- Mortality ([4]; up to 54 mg/day for 14 days): No test article related mortality occurred
- Brain histopathology (neuronal necrosis, Olney lesions) ([4]; up to 54 mg/day, 48 hours after the last instillation, hydrochloride): no morphological evidence of neuronal degeneration; also recorded: no histopathological lesions were noted; also recorded: No histopathological lesions were found; also recorded: absence of neuronal necrosis
- Maximum solubility expressed as base [5]: 180 mg esketamine base/mL

Molecule: (+)MK-801 maleate
- Potency of the (+)-enantiomer relative to the (−)-enantiomer [6]: 7 times
